# In patent publication US9623023B2, “Class of non-stimulant treatment and ADHD and related disorders” (The Florida State University Research Foundation, …, priority 2012, dated 2017):
# “Also recorded” adds a separate entry of the source.
# Columns and labels:
# PNE mice [1] = details: active phase (lights off), Zhu 2012; cited from earlier work
# PNE mice [2] = test: Locomotor activity (hyperactivity) in prenatal nicotine exposure (PNE) mouse model; assay type: in vivo; details: oral
# PFC dopamine turnover = details: PNE mice; MPH administration; Zhu 2012; cited from earlier work
# [3] = long-term usage; Recant 1980; cited from earlier work
# [4] = system: hyperactivity in children; details: oral, dose range 0.5-2 mg/kg; previous reports; cited from earlier work
# KOPR = details: previous reports (Metcalf and Coop 2005; Patkar 2013); cited from earlier work
# SHR rats = test: Locomotor activity (hyperactivity) in spontaneously hypertensive rat (SHR) ADHD model; assay type: in vivo
# Description: (§1) Spontaneously hypertensive rat (SHR) as an ADHD model. The SHR is a spontaneously occurring mutation associated with hypertension. […] Thus, both the SHR and the PNE mouse model show hyperactivity and increased frontal cortical KOPR activity. The selective KOPR antagonist, nor-BNI (10 mg/kg, i.p.) or the saline vehicle were administered to 60-day old SHR and WKY control rats (Sagvolden et al., 2009 (Reference 56)) at 17:00 hr and locomotor activity measured at hourly intervals over the next 19 hr (FIGS. 4 and 5). […] Since the hyperactivity in the SHR rat was evident during the lights off period from 19:00 hr to 7:00 hr, activity was compared during the lights off period between SHR rats receiving nor-BNI and those receiving saline.
# The long-lasting effects of nor-BNI in the SHR is consistent with previous reports that the desensitization of the KOPR produced by nor-BNI lasts for up to 21 days (Metcalf and Coop, 2005 (Reference 43); Patkar et al., 2013 (Reference 48)).
# WKY control rats = test: Locomotor activity in WKY control rats; assay type: in vivo, rat; details: 10 mg/kg i.p.
# Description: as §1
smiles,measurement,setting,value
"COC(=O)C(c1ccccc1)C1CCCCN1 (stereo not drawn) [MPH, methylphenidate]",locomotor activity after single oral administration,PNE mice [1],reduces the activity to the levels seen in drug naïve control mice
same,locomotor activity,"PNE mice [2]; PNE mice, MPH 0.75 mg/kg, FIG. 2 graph 204",significantly decreased locomotor activity
same,PFC dopamine turnover,PFC dopamine turnover,increases PFC dopamine turnover
O=C1CC[C@@]2(O)[C@H]3Cc4ccc(O)c5c4[C@@]2(CCN3CC2CC2)[C@H]1O5 [naltrexone],weight gain,[3],reduced weight gain
same,locomotor activity compared to vehicle,"PNE mice [2]; P60 male PNE mice, naltrexone 1 mg/kg, at 19:00 hrs, FIG. 2 graph 202",significantly reduces locomotor activity; also recorded: reduces hyperactivity in PNE mice in a manner comparable to that of methylphenidate
same,hyperactivity in children,[4],effective in reducing hyperactivity
"Oc1ccc2c3c1O[C@H]1c4[nH]c5c(c4C[C@@]4(O)[C@@H](C2)N(CC2CC2)CC[C@]314)C[C@@]1(O)[C@H]2Cc3ccc(O)c4c3[C@@]1(CCN2CC1CC1)[C@H]5O4 [nor-BNI, nor-binaltorphimine]",duration of desensitization of the KOPR,KOPR,up to 21 days
same,locomotor activity during lights off period (Mean±SEM beam breaks),"SHR rats; 60-day old SHR, 10 mg/kg i.p. at 17:00 hr, lights off 19:00-7:00 hr, saline=4830.75±609.2, p=0.04",2743.25±945.8 beam breaks
same,effect on locomotor activity compared to saline,"SHR rats; SHR, 10 mg/kg i.p., FIG. 4",reduced the locomotor activity
same,period over which decrease in hyperactivity was observed,"SHR rats; SHR, single i.p. injection 10 mg/kg",21 days
same,locomotor activity during lights off period (Mean±SEM beam breaks),"WKY control rats; 60-day old WKY control rats, saline=2604.5±608.1, p>0.05",2494.75±831.6 beam breaks
same,effect on locomotor activity,"WKY control rats; WKY control rats, FIG. 5",did not affect locomotor activity
